# “Also recorded” adds a separate entry of the source.
# Experiments:
# P. aeruginosa [1] = conditions: cited from earlier work
# S. marcescens [2] = conditions: cited from earlier work
# E. faecalis E2 = conditions: oral administration
# Experimental: Next, the compound was tested in a mouse model of E. faecalis-mediated anastomotic leak by providing 1% ABA-PEG20k-Pi20 in drinking water. At post-operative day (POD) 7, anastomotic healing was assessed and the total amount of E. faecalis present at the anastomotic site and the percentage of E. faecalis expressing the collagenolytic phenotype were determined.
# Two groups of mice were involved in this study. All mice were subjected to colon anastomosis followed by an enema of E. faecalis E2 at POD1. The first group received water, and the second group received 1% ABA-PEG20k-Pi20 dissolved in water. At the time of sacrifice at POD7, the tissues and luminal contents were collected at the site of anastomosis, homogenized, and used for culturing. Total Enterococcus colonization at the anastomosis site and luminal content were determined by culture analysis using Enterococcal selective plates (BD Difco) on which all Enterococcus species produced black-pigmented colonies. The CFU count was normalized to the sample weight. […] The collagenolytic population was evaluated on Enterococcal plates covered with skim milk on which collagenolytic species produced black colonies with a clearing halo surrounding the colony.
# S. marcescens [3] = conditions: supplementation in the drinking water; cited from earlier work
# Enterococcus faecalis = assay: Growth of Enterococcus faecalis; type: cell-based; conditions: in vitro
# Experimental: The inability of PPi-6 to suppress the collagenolytic activity of E. faecalis in vitro relates to its inability in vivo to improve anastomotic healing. […] The efficacy of this compound in vivo correlated to its ability to profoundly suppress collagenase activity in these strains […]. […] Actually, PPi-6 at concentrations of >2 mM even suppressed the E. faecalis growth.
# [4] = test system: Enterococcus faecalis collagenolytic strains (E2 and E27); assay: Collagenase production of collagenolytic Enterococcus faecalis, overnight incubation; type: cell-based; conditions: in vitro
# human pathogen community = assay: Mice with 30% hepatectomy and intestinal infection with human pathogen community, polymers in drinking water; type: in vivo
# Description: (A) FIG. 10(A) provides data showing the extent of cell proliferation in cecal crypts of mice provided with drinking water lacking a phosphorylated PEG (PC 1-3, i.e., pathogen community, plates 1-3 wherein each plate contained 10 or 15 C. elegans worms exposed to pathogens), drinking water containing 3% PPi6 (hexametaphosphate) (PPi6 1-3 refers to plates 1-3 as described above, but exposed to pathogens from mice drinking 3% PPi6), or drinking water containing 1% ABA-PEG20k (ABA-PEG20k-P120 1-3, wherein 1-3 refers to plates 1-3 as described above exposed to pathogen from mice drinking 1% ABA-PEG20k). All groups are SAH+PC (starvation-positive, antibiotic-positive hepatectomy subjects exposed to the pathogen community), POD2 (data from post-operative day 2), and cell proliferation is measured by immunostaining for Ki67.
# An experiment was conducted to assess the effects of phosphorylated polymers, i.e., PPi-6 and ABA-PEG20k-Pi20, delivered orally as drinking solutions to mice subjected to 30% hepatectomy and intestinal infection with the human pathogen community. More particularly, the mice were divided into the following groups. Group 1 contained starvation-positive, antibiotic-positive mice receiving no phosphorylated PEG but exposed to the pathogen community. Data from three groups of mice were analyzed. Absolute (FIG. 16A) and relative to crypt depth (FIG. 16B) Ki67 distributions were counted on 90 crypts cumulative of 3 mice in each group. Group 2 contained starvation-positive, antibiotic-positive mice receiving 3% PPi-6 and exposed to the pathogen community. Data from three mice were analyzed, totaling 109 crypts for Ki67 counts. Group 3 contained starvation-positive, antibiotic-positive mice receiving 1% ABA-PEG20k-Pi20 and exposed to the pathogen community. Data from three mice were analyzed, totaling 168 crypts for Ki67 counts.
# Stem cell proliferation in cecal crypts, measured by immunostaining for the Ki67 marker, provides an accepted measure of crypt homeostasis.
# P. aeruginosa [5] = conditions: supplementation in the drinking water; cited from earlier work
# [6] = 3% PPi6 or 1% polymer in drinking water, POD2, SAH+PC mice
smiles,measurement,setting,value
"O=P1([O-])OP(=O)([O-])OP(=O)([O-])OP(=O)([O-])OP(=O)([O-])OP(=O)([O-])O1.[Na+].[Na+].[Na+].[Na+].[Na+].[Na+] [PPi-6, Sodium hexametaphosphate]",collagenase production,P. aeruginosa [1],profoundly suppresses the collagenase production
same,collagenase production,S. marcescens [2],profoundly suppresses the collagenase production
same,anastomotic healing / protection in mouse model,E. faecalis E2,did not improve the anastomotic healing complications
same,protection from colonic anastomosis leakage,S. marcescens [3],protects mice from colonic anastomosis leakage
same,E. faecalis growth,Enterococcus faecalis,does not promote a growth
same,concentration that suppressed E. faecalis growth,Enterococcus faecalis,> 2 mM
same,collagenase production / collagenolytic activity of E. faecalis,[4],only slightly attenuated collagenase production; also recorded: does not affect the collagenolytic activity
same,abnormal stem cell proliferation in cecal crypts,human pathogen community; 3% PPi6 or 1% ABA-PEG20k-Pi20 in drinking water,inhibit abnormal stem cell proliferation
same,height of cell proliferation above cecal crypt base (Ki67),human pathogen community; [6],31.04±1.288 m
same,height of proliferating cells relative to cecal crypt depth (Ki67),human pathogen community; [6],35.12±1.332 m
same,mortality rate,"human pathogen community; post-operative day 2, 3% PPi6 or 1% ABA-PEG20k-Pi20 in drinking water",0%
same,protection from colonic anastomosis leakage,P. aeruginosa [5],protects mice from colonic anastomosis leakage

# — US11571443B2, “Phosphorylated tri-block copolymers with antimicrobial properties” (THE UNIVERSITY OF CHICAGO, priority 2016, dated 2023)
